Key:
Assay type in all cases: functional, cell-based
HCT-15 = assay: Inhibitory concentration towards human colon adenocarcinoma cell line (HCT-15) was determined
PC-3 [1] = assay: Inhibitory concentration towards human prostatic adenocarcinoma cell line (PC-3) was determined
U-251 = assay: Inhibitory concentration towards human central nervous system glioblastoma cell line (U251) was determined
K562 = assay: Inhibitory concentration towards chronic myelogenous leukemic cell line (K562) was determined; settings: Homo sapiens
PC-3 [2] = assay: Inhibitory concentration against human prostatic adenocarcinoma cell line (PC-3) was determined

Structure (SMILES)	IC50 (HCT-15)	IC50 (PC-3 [1])	IC50 (U-251)	IC50 (K562)	IC50 (PC-3 [2])
CC1(C)/C(=N/O)C=C[C@]23C[C@]24CC[C@]2(C)C([C@]5(C)CC[C@H](C(C)(C)O)O5)[C@@H](O)C[C@@]2(C)C4CCC13 (stereo not given in full)	35.8 µM	46.9 µM	26.8 µM	44.4 µM	
CC1(C)C(=O)CC[C@]23C[C@]24CC[C@]2(C)C([C@]5(C)CCC(=O)O5)C(=O)C[C@@]2(C)C4CCC13 (stereo not given in full)	> 100 µM	> 100 µM	> 100 µM	> 100 µM	
CC(=O)O[C@H]1C[C@@]2(C)C3CCC4C(C)(C)/C(=N\O)CC[C@@]45C[C@@]35CC[C@]2(C)C1[C@]1(C)CC[C@H](C(C)(C)OC(C)=O)O1 (stereo not given in full)	28.9 µM	12.6 µM	21.4 µM	15.2 µM	
CC1(C)C(=O)C=C[C@]23C[C@]24CC[C@]2(C)C([C@]5(C)CC[C@H](C(C)(C)O)O5)[C@@H](O)C[C@@]2(C)C4CCC13 (stereo not given in full)	16.7 µM	15.3 µM	18.9 µM	16.8 µM	
CC1(C)c2oncc2C[C@]23C[C@]24CC[C@]2(C)C([C@]5(C)CC[C@H](C(C)(C)O)O5)[C@@H](O)C[C@@]2(C)C4CCC13 (stereo not given in full)	10.2 µM	13 µM	11.3 µM	11 µM	
CC(=O)OC1C[C@@]2(C)C3CCC4C(C)(C)C(=O)C=C[C@@]45C[C@@]35CC[C@]2(C)C1[C@]1(C)CC[C@H](C(C)(C)OC(C)=O)O1 (stereo not given in full)	> 100 µM	13.9 µM	58.4 µM	> 100 µM	
CC1(C)C(=O)CC[C@]23C[C@]24CC[C@]2(C)C([C@]5(C)CC[C@H](C(C)(C)O)O5)[C@@H](O)C[C@@]2(C)C4CCC13 (stereo not given in full)	31.7 µM	20.2 µM	27.3 µM	38.6 µM	
CC(=O)O[C@H]1C[C@@]2(C)C3CCC4C(C)(C)C(=O)CC[C@@]45C[C@@]35CC[C@]2(C)C1[C@]1(C)CC[C@H](C(C)(C)OC(C)=O)O1 (stereo not given in full)	40.7 µM	22.7 µM	30.5 µM	68.4 µM	
CC1(C)C(=O)[C@H](Br)C[C@]23C[C@]24CC[C@]2(C)C([C@]5(C)CC[C@H](C(C)(C)O)O5)[C@@H](O)C[C@@]2(C)C4CCC13 (stereo not given in full)	3.23 µM		13.9 µM	4.34 µM	11.1 µM
CC1(C)C(O)=C(C=O)C[C@]23C[C@]24CC[C@]2(C)C([C@]5(C)CC[C@H](C(C)(C)O)O5)C(O)C[C@@]2(C)C4CCC13 (stereo not given in full)	9.82 µM	5.69 µM	5.88 µM	14.4 µM	

— ChEMBL document CHEMBL1144311, “Synthesis of argentatin A derivatives as growth inhibitors of human cancer cell lines in vitro” (Bioorg Med Chem Lett, 2005)
